Read-outs that look alike come from different tables or passages of the source.
Tests used:
[1] = type: physicochemical; settings: 25° C.
[2] = Example 22: % Add on by humectant and permeation enhancer concentration, 60° C., 1 h, squeezed; type: physicochemical; settings: 3% lidocaine
[3] = Example 23: % Add on by surfactant concentration, 60° C., 1 h; type: physicochemical; settings: 3% lidocaine
[4] = Example 26: leveling; % lidocaine Add on from extraction in 0.01M HCl and HPLC; type: physicochemical
[5] = Example 20: loading kinetics, aqueous 10% lidocaine, 10% PEG 400, 10% propylene glycol, 2% Polysorbate 80, 60° C., pre-cut shapes of 91.4% polyamide/8.6% elastane, squeezed; type: physicochemical
[6] = Example 11: % Add on from aqueous lidocaine without excipients, 60° C., 1 h, 91.4% polyamide/8.6% elastane; type: physicochemical
[7] = Example 21: % Add on by finish composition, 60° C., 1 h, 91.4% polyamide/8.6% elastane; type: physicochemical
[8] = Example 9: % Add on of 91.4% polyamide/8.6% elastane after 1 h in aqueous 10% PEG 400, 10% propylene glycol, 2% Polysorbate 80 with lidocaine, dried overnight at RT; type: physicochemical
[9] = 3% lidocaine, 2% Polysorbate 80
[10] = 3% lidocaine, 10% PEG 400, 2% Polysorbate 80
[11] = 3% lidocaine, 10% PEG 400, 10% propylene glycol
[12] = 3% lidocaine, 10% PEG 400, 10% propylene glycol, 2% Polysorbate 80
[13] = 3% lidocaine, 10% propylene glycol
[14] = 3% lidocaine, 10% propylene glycol, 2% Polysorbate 80

SMILES: CCN(CC)CC(=O)Nc1c(C)cccc1C [Lidocaine, lidocaine]
- % Add on ([1]; lidocaine 0.1%, dried at RT): 42.31%
- % Add on ([1]; lidocaine 0.1%, squeezed): 7.23%
- % Add on ([1]; lidocaine 0.1%, washed in NaOH): 2.74%
- % Add on ([1]; lidocaine 0.1%, washed in water): 1.40%
- % Add on ([1]; lidocaine 25%, dried at RT): 118.56%
- Mean % Add on ([2]; 2% PEG 400, 2% Polysorbate 80): 16.59%
- Mean % Add on ([2]; 2% propylene glycol, 2% Polysorbate 80): 14.96%
- Mean % Add on ([2]; 8% PEG 400, 2% Polysorbate 80): 26.06%
- Mean % Add on ([2]; 8% propylene glycol, 2% Polysorbate 80): 15.93%
- Mean % Add on ([2]; 15% PEG 400, 2% Polysorbate 80): 30.96%
- Mean % Add on ([2]; 15% propylene glycol, 2% Polysorbate 80): 14.84%
- Mean % Add on ([2]; 20% PEG 400, 2% Polysorbate 80): 37.95%
- Mean % Add on ([2]; 20% propylene glycol, 2% Polysorbate 80): 16.03%
- Mean % Add on (dried at RT) ([3]; 2% Polysorbate 80): 16.18%
- Mean % Add on (dried at RT) ([3]; 5% Polysorbate 80): 22.89%
- Mean % Add on (dried at RT) ([3]; 8% Polysorbate 80): 21.18%
- Mean % Add on (dried at RT) ([3]; 10% PEG 400): 39.67%
- Mean % Add on (dried at RT) ([3]; 10% Polysorbate 80): 24.11%
- Mean % Add on (dried at RT) ([3]; 10% propylene glycol): 23.99%
- Mean % Add on (dried at RT) ([3]; 15% Polysorbate 80): 33.29%
- Mean % Add on (dried at RT) ([3]; 20% Polysorbate 80): 38.08%
- % lidocaine Add on ([4]; exposure to 0.01M HCl 1 hr): 18.86%
- % lidocaine Add on ([4]; exposure to 0.01M HCl 2 hr): 18.07%
- % lidocaine Add on ([4]; exposure to 0.01M HCl 4 hr): 18.78%
- % lidocaine Add on ([4]; exposure to 0.01M HCl 6 hr): 18.25%
- % lidocaine Add on ([4]; exposure to 0.01M HCl 22 hr): 18.04%
- % Add on ([5]; loading time 1 min, Combined): 29.915%
- % Add on ([5]; loading time 1 min, Shape A): 29.820%
- % Add on ([5]; loading time 1 min, Shape B): 27.838%
- % Add on ([5]; loading time 1 min, Shape C): 30.455%
- % Add on ([5]; loading time 1 min, Shape D): 31.547%
- % Add on ([5]; loading time 2 min, Combined): 35.227%
- % Add on ([5]; loading time 2 min, Shape A): 34.985%
- % Add on ([5]; loading time 2 min, Shape B): 36.019%
- % Add on ([5]; loading time 2 min, Shape C): 34.260%
- % Add on ([5]; loading time 2 min, Shape D): 35.643%
- % Add on ([5]; loading time 3 min, Combined): 36.500%
- % Add on ([5]; loading time 3 min, Shape A): 37.273%
- % Add on ([5]; loading time 3 min, Shape B): 36.782%
- % Add on ([5]; loading time 3 min, Shape C): 35.879%
- % Add on ([5]; loading time 3 min, Shape D): 36.064%
- % Add on ([5]; loading time 6 min, Combined): 41.938%
- % Add on ([5]; loading time 6 min, Shape A): 42.242%
- % Add on ([5]; loading time 6 min, Shape B): 44.328%
- % Add on ([5]; loading time 6 min, Shape C): 40.764%
- % Add on ([5]; loading time 6 min, Shape D): 40.418%
- % Add on ([5]; loading time 10 min, Combined): 41.190%
- % Add on ([5]; loading time 10 min, Shape A): 39.998%
- % Add on ([5]; loading time 10 min, Shape B): 44.262%
- % Add on ([5]; loading time 10 min, Shape C): 40.939%
- % Add on ([5]; loading time 10 min, Shape D): 39.560%
- % Add on ([5]; loading time 60 min, Combined): 44.374%
- % Add on ([5]; loading time 60 min, Shape B): 41.509%
- % Add on ([5]; loading time 60 min, Shape C): 48.701%
- % Add on ([5]; loading time 60 min, Shape D): 41.556%
- % Add on ([5]; loading time 120 min, Combined): 42.458%
- % Add on ([5]; loading time 120 min, Shape A): 42.233%
- % Add on ([5]; loading time 120 min, Shape B): 43.286%
- % Add on ([5]; loading time 120 min, Shape C): 43.679%
- % Add on ([5]; loading time 120 min, Shape D): 40.635%
- % Add on ([5]; loading time 180 min, Combined): 41.691%
- % Add on ([5]; loading time 180 min, Shape A): 42.281%
- % Add on ([5]; loading time 180 min, Shape B): 40.802%
- % Add on ([5]; loading time 180 min, Shape C): 42.474%
- % Add on ([5]; loading time 180 min, Shape D): 41.206%
- % Add on ([6]; lidocaine 0.1% w/w, dried at RT): 1.03%
- % Add on ([6]; lidocaine 0.1% w/w, squeezed): 1.09%
- % Add on ([6]; lidocaine 0.4% w/w, dried at RT): 2.86%
- % Add on ([6]; lidocaine 0.4% w/w, squeezed): 2.91%
- % Add on ([6]; lidocaine 1% w/w, dried at RT): 8.03%
- % Add on ([6]; lidocaine 1% w/w, squeezed): 7.57%
- % Add on ([6]; lidocaine 3% w/w, dried at RT): 22.17%
- % Add on ([6]; lidocaine 3% w/w, squeezed): 28.01%
- % Add on ([6]; lidocaine 5% w/w, dried at RT): 31.61%
- % Add on ([6]; lidocaine 5% w/w, squeezed): 39.06%
- % Add on ([6]; lidocaine 10% w/w, dried at RT): 102.39%
- % Add on ([6]; lidocaine 10% w/w, squeezed): 30.39%
- % Add on ([6]; lidocaine 15% w/w, dried at RT): 62.68%
- % Add on ([6]; lidocaine 15% w/w, squeezed): 98.46%
- % Add on ([6]; lidocaine 25% w/w, dried at RT): 56.33%
- % Add on ([6]; lidocaine 25% w/w, squeezed): 148.02%
- Mean % Add on (dried at RT) ([7]; 3% lidocaine only): 37.25%
- Mean % Add on (squeezed) ([7]; 3% lidocaine only): 20.27%
- Mean % Add on (dried at RT) [7, 9]: 19.10%
- Mean % Add on (squeezed) [7, 9]: 14.97%
- Mean % Add on (dried at RT) ([7]; 3% lidocaine, 10% PEG 400): 54.02%
- Mean % Add on (squeezed) ([7]; 3% lidocaine, 10% PEG 400): 32.03%
- Mean % Add on (dried at RT) [7, 10]: 42.88%
- Mean % Add on (squeezed) [7, 10]: 24.91%
- Mean % Add on (dried at RT) [7, 11]: 56.37%
- Mean % Add on (squeezed) [7, 11]: 30.01%
- Mean % Add on (dried at RT) [7, 12]: 40.92%
- Mean % Add on (squeezed) [7, 12]: 25.73%
- Mean % Add on (dried at RT) [7, 13]: 34.89%
- Mean % Add on (squeezed) [7, 13]: 21.14%
- Mean % Add on (dried at RT) [7, 14]: 19.34%
- Mean % Add on (squeezed) [7, 14]: 14.48%
- % Add on ([8]; lidocaine 0.1% (w/w), 2-8° C.): 25.93%
- % Add on ([8]; lidocaine 0.1% (w/w), 50° C.): 32.73%
- % Add on ([8]; lidocaine 0.1% (w/w), 80° C.): 32.20%
- % Add on ([8]; lidocaine 0.1% (w/w), RT): 23.91%
- % Add on ([8]; lidocaine 0.5% (w/w), 2-8° C.): 31.48%
- % Add on ([8]; lidocaine 0.5% (w/w), 50° C.): 29.79%
- % Add on ([8]; lidocaine 0.5% (w/w), 80° C.): 23.91%
- % Add on ([8]; lidocaine 0.5% (w/w), RT): 26.79%
- % Add on ([8]; lidocaine 1% (w/w), 2-8° C.): 34.00%
- % Add on ([8]; lidocaine 1% (w/w), 50° C.): 64.44%
- % Add on ([8]; lidocaine 1% (w/w), 80° C.): 32.14%
- % Add on ([8]; lidocaine 1% (w/w), RT): 33.96%
- % Add on ([8]; lidocaine 3% (w/w), 2-8° C.): 40.00%
- % Add on ([8]; lidocaine 3% (w/w), 50° C.): 56.52%
- % Add on ([8]; lidocaine 3% (w/w), 80° C.): 48.98%
- % Add on ([8]; lidocaine 3% (w/w), RT): 43.75%
- % Add on ([8]; lidocaine 5% (w/w), 2-8° C.): 60.00%
- % Add on ([8]; lidocaine 5% (w/w), 50° C.): 46.00%
- % Add on ([8]; lidocaine 5% (w/w), 80° C.): 64.91%
- % Add on ([8]; lidocaine 5% (w/w), RT): 47.27%
- % Add on ([8]; lidocaine 8% (w/w), 2-8° C.): 50.00%
- % Add on ([8]; lidocaine 8% (w/w), 50° C.): 64.15%
- % Add on ([8]; lidocaine 8% (w/w), 80° C.): 89.13%
- % Add on ([8]; lidocaine 8% (w/w), RT): 58.00%
- % Add on ([8]; lidocaine 10% (w/w), 2-8° C.): 55.77%
- % Add on ([8]; lidocaine 10% (w/w), 50° C.): 74.55%
- % Add on ([8]; lidocaine 10% (w/w), 80° C.): 78.72%
- % Add on ([8]; lidocaine 10% (w/w), RT): 102.04%
- % Add on ([8]; lidocaine 15% (w/w), 2-8° C.): 69.77%
- % Add on ([8]; lidocaine 15% (w/w), 50° C.): 95.74%
- % Add on ([8]; lidocaine 15% (w/w), 80° C.): 117.78%
- % Add on ([8]; lidocaine 15% (w/w), RT): 116.98%
- % Add on ([8]; lidocaine 20% (w/w), 2-8° C.): 78.72%
- % Add on ([8]; lidocaine 20% (w/w), 50° C.): 107.41%
- % Add on ([8]; lidocaine 20% (w/w), 80° C.): 116.00%
- % Add on ([8]; lidocaine 20% (w/w), RT): 134.04%
- % Add on ([8]; lidocaine 25% (w/w), 2-8° C.): 132.08%
- % Add on ([8]; lidocaine 25% (w/w), 50° C.): 124.00%
- % Add on ([8]; lidocaine 25% (w/w), 80° C.): 132.56%
- % Add on ([8]; lidocaine 25% (w/w), RT): 269.57%
